Calls of active or inactive are those of the source. The calls are words filed in the database; no cut-off is given here.
How the values were obtained:
[1] = Inhibition of PDE7 in human HUT78 cell lysate using cAMP as substrate after 20 mins by scintillation proximity assay
[2] = Inhibition of PDE4 in human HUT78 cell lysate using cAMP as substrate after 20 mins by scintillation proximity assay
[3] = molecular target: T1, High affinity 3',5'-cyclic-AMP phosphodiesterase 7A (Homo sapiens, UniProt Q13946); test: Inhibition of human GST-tagged PDE7A expressed in baculovirus infected Sf9 insect cells using cAMP as substrate after 10 mins by PDE-Glo Phosphodiesterase Assay
[4] = molecular target: 3',5'-cyclic-AMP phosphodiesterase 4B (Homo sapiens, UniProt Q07343); test: Inhibition of human GST-tagged PDE4B expressed in baculovirus infected Sf9 insect cells using cAMP as substrate after 10 mins by PDE-Glo Phosphodiesterase Assay
Rattus norvegicus [5] = test: Antiinflammatory activity in albino Wistar rat assessed as inhibition of LPS-induced TNFalpha production in plasma at 50 mg/kg, ip after 1.5 hrs by ELISA relative to control; type: functional
Mus musculus = test: In vivo inhibition of PDE4 in Balb/c mouse assessed as plasma cAMP levels at 100 mg/kg, po after 20 mins by RIA (reference value: 80.5 pmol/ml); type: functional
[6] = molecular target: T1, High affinity 3',5'-cyclic-AMP phosphodiesterase 7A; test: Inhibition of human C-terminal FLAG-tagged PDE7A expressed in baculovirus infected Sf9 cells using [3H]-cAMP as substrate after 15 mins by scintillation proximity assay
[7] = Inhibition of human PDE4 using [3H]-cAMP as substrate after 15 mins by scintillation proximity assay
[8] = molecular target: T1, High affinity 3',5'-cyclic-AMP phosphodiesterase 7A; test: Inhibition of PDE7A1 (unknown origin) expressed in baculovirus infected insect cells using [3H]cAMP as substrate preincubated for 5 mins followed by substrate addition and measured after 15 mins by scintillation proximity assay
[9] = molecular target: 3',5'-cyclic-AMP phosphodiesterase 4D (Homo sapiens, UniProt Q08499); test: Inhibition of PDE4D3 (unknown origin) using [3H]cAMP as substrate preincubated for 5 mins followed by substrate addition and measured after 15 mins by scintillation proximity assay
[10] = molecular target: T1, High affinity 3',5'-cyclic-AMP phosphodiesterase 7A; test: Inhibition of human recombinant FLAG-tagged PDE7A expressed in African green monkey COS7 cells using [3H]cAMP as substrate after 30 mins by scintillation counting analysis; type: cell-based
[11] = Inhibition of guinea pig PDE4 using [3H]cAMP as substrate after 30 mins
[12] = Inhibition of human recombinant His-tagged PDE7 expressed in baculovirus infected Sf9 insect cells using [3H]-cAMP as substrate after 60 mins by scintillation proximity assay
[13] = Inhibition of PDE4 (unknown origin) using [3H]-cAMP as substrate after 60 mins by scintillation proximity assay; design: species or system Homo sapiens
Rattus norvegicus [14] = test: Antiinflammatory activity in albino Wistar rat assessed as inhibition of LPS-induced TNFalpha production in plasma at 50 mg/kg, ip after 2 hrs by ELISA; type: functional, organism-based
Rattus norvegicus [15] = test: Antiinflammatory activity in albino Wistar rat assessed as inhibition of LPS-induced TNFalpha production in plasma at 50 mg/kg, ip after 1 hr by ELISA; type: functional, organism-based

T1 sequence (Q13946 whole entry): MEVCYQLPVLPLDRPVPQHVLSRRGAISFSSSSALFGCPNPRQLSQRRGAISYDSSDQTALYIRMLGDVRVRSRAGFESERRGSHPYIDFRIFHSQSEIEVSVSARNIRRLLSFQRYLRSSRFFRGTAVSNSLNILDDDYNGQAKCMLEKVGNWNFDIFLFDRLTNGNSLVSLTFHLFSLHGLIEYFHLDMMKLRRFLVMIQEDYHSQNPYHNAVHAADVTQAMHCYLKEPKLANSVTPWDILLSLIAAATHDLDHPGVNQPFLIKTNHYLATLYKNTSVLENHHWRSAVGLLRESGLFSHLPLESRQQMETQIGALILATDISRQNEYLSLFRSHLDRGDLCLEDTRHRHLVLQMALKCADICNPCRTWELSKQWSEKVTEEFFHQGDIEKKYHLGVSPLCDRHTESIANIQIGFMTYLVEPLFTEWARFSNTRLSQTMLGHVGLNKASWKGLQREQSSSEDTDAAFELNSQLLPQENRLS
Sequence of 3',5'-cyclic-AMP phosphodiesterase 4B (Q07343 whole entry): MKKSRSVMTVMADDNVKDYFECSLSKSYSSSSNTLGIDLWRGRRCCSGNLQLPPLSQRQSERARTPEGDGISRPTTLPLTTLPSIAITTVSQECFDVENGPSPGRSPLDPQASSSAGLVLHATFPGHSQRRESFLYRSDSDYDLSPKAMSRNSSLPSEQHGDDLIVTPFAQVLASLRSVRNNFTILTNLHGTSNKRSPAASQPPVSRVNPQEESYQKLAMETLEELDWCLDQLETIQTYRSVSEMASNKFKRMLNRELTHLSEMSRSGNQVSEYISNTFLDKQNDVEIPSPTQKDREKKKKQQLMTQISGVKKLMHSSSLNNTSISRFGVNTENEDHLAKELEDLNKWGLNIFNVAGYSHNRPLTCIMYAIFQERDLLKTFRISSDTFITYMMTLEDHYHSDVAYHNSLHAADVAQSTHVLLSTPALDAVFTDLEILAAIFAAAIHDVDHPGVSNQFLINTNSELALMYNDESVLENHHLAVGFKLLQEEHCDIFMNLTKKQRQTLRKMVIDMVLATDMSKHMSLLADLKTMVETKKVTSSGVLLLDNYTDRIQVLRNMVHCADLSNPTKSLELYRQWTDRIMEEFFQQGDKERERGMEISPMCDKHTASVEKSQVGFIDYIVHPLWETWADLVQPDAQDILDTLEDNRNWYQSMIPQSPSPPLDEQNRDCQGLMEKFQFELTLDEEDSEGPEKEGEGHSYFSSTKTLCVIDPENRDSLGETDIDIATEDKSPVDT
Sequence of 3',5'-cyclic-AMP phosphodiesterase 4D (Q08499 whole entry): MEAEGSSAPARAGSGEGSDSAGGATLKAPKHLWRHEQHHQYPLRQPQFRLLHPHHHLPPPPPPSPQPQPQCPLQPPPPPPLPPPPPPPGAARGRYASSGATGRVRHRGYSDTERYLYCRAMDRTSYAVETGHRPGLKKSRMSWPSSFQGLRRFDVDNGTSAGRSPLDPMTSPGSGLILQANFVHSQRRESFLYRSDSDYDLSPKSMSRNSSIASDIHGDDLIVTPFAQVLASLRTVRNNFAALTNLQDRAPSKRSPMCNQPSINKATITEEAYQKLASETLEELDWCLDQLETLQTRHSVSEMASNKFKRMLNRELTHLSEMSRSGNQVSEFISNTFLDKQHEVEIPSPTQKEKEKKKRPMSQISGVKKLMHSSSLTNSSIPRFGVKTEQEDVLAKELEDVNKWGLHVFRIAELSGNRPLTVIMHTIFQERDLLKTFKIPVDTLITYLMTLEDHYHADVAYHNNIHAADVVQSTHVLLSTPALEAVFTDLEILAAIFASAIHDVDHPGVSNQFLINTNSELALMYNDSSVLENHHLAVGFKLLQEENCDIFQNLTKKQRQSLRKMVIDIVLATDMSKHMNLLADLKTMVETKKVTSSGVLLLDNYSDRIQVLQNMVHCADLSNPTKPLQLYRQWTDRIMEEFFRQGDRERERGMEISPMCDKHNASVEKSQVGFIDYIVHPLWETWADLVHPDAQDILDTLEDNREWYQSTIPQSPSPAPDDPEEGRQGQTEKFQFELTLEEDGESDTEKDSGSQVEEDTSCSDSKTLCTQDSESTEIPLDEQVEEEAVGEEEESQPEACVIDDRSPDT

Compound	IC50 [3] [µM]	IC50 [4] [µM]	other results
CCOC(=O)c1sc(Nc2nc(N3CCC(O)CC3)cc(N3CCC(O)CC3)n2)nc1C			IC50 [1]: 0.06 µM; IC50 [2]: 3.2 µM
Cn1c(=O)c2c(nc(NCCc3ccccc3)n2CCCC(=O)N/N=C/c2ccc(O)c(O)c2O)n(C)c1=O	3.2	1.4	inhibition in vivo at 50 mg/kg (Rattus norvegicus [5]): 84%
Cn1c(=O)c2c(nc(NCc3ccccc3)n2CCCC(=O)N/N=C/c2ccc(O)cc2O)n(C)c1=O	116	5.5	
Cn1c(=O)c2c(nc(NCc3ccccn3)n2CCCC(=O)N/N=C/c2ccc(O)c(O)c2O)n(C)c1=O	9.5	1.8	
Cn1c(=O)c2nc[nH]c2n(C)c1=O.O [THEOPHYLLINE]		> 200	Activity (Mus musculus): 296.9 pmol/mL
CCOc1nc2c(c(=O)n(C)c(=O)n2C)n1CCCC(=O)N/N=C/c1ccccc1	48.9	37	
Cn1c(=O)c2c(nc(NCc3ccco3)n2CCCC(=O)N/N=C/c2ccccc2O)n(C)c1=O	> 200	12.5	
CCCOc1nc2c(c(=O)n(C)c(=O)n2C)n1CCCC(=O)N/N=C/c1ccc(O)cc1O	56.1	116	
COc1ccc(/C=N/NC(=O)CCCn2c(NCc3ccco3)nc3c2c(=O)n(C)c(=O)n3C)c(O)c1	69.8	70.8	
CCOc1nc2c(c(=O)n(C)c(=O)n2C)n1CCCC(=O)N/N=C/c1ccc(O)cc1O	141	16.2	
CCOc1nc2c(c(=O)n(C)c(=O)n2C)n1CCCC(=O)N/N=C/c1ccccc1O	27.6	7.9	
COc1ccc(-c2cc3c(n2-c2ccc(S(=O)(=O)Nc4nc(C)cc(C)n4)cc2)CCC(N2CCN(C)CC2)C3)cc1C (stereo not given)			IC50 [6]: 0.014 µM; IC50 [7]: 0.63 µM
CCOC(=O)c1sc(Nc2nc(NCc3cc(OC)c(OC)c(OC)c3)cc(N3CCC(N(C)C)CC3)n2)nc1C			IC50 [1]: 0.003 µM; IC50 [2]: 3 µM
COc1ccc(/C=N/NC(=O)CCCn2c(NCc3ccccc3)nc3c2c(=O)n(C)c(=O)n3C)c(O)c1	52.8	44	
Cn1c(=O)c2c(ncn2CCCC(=O)N/N=C/c2ccc(O)cc2O)n(C)c1=O	> 200	> 200	
CCOc1nc2c(c(=O)n(C)c(=O)n2C)n1CCCC(=O)N/N=C/c1ccccc1OC	> 200	> 200	
COc1ccc(C2=NN(C3CCCC3)C(=O)C3CC=CCC23)cc1Cl (stereo not given)			IC50 [8]: 0.018 µM; IC50 [9]: 0.00078 µM

Compound	IC50 [3] [µM]	IC50 [4] [µM]	other results
CC(C)Cn1c(=O)n(C)c(=O)c2[nH]cnc21 [ISOBUTYLMETHYLXANTHINE]	85.6	28.2	
Cc1ccc([N+](=O)[O-])cc1S(=O)(=O)N(C)C	2.1	175	
Cn1c(=O)c2c(nc(NCc3ccccn3)n2CCCC(=O)N/N=C/c2ccccc2O)n(C)c1=O	> 200	7.7	
CCCOc1nc2c(c(=O)n(C)c(=O)n2C)n1CCCC(=O)N/N=C/c1ccccc1O	11.7	31.1	
Cn1c(=O)c2c(nc(NCc3ccco3)n2CCCC(=O)N/N=C/c2ccc(O)cc2O)n(C)c1=O	10.5	4.4	
Cn1c(=O)c2c(nc(NCc3ccco3)n2CCCC(=O)N/N=C/c2ccc(O)c(O)c2O)n(C)c1=O	3.8	7.4	inhibition in vivo at 50 mg/kg (Rattus norvegicus [5]): 88%
Cn1c(=O)c2c(ncn2CCCC(=O)N/N=C/c2ccccc2O)n(C)c1=O	> 200	> 200	
CCCOc1nc2c(c(=O)n(C)c(=O)n2C)n1CCCC(=O)N/N=C/c1ccccc1	92.9	51.8	
CCCOc1nc2c(c(=O)n(C)c(=O)n2C)n1CCCC(=O)N/N=C/c1ccc(OC)cc1O	89.3	47.8	
CCOc1cc2cc(CO)c(CO)c(-c3ccnc(-n4nc(-c5cccnc5)c5ccccc5c4=O)c3)c2cc1OCC			IC50 [10]: 1.7 µM; IC50 [11]: 0.00013 µM
Cn1c(=O)c2c(nc(NCCc3ccccc3)n2CCCC(=O)N/N=C/c2ccccc2O)n(C)c1=O	7.3	26.9	
CCC(C)(O)c1oc(=O)c2ccccc2c1-c1ccc(OC)c(OC2CCCC2)c1 (stereo not given)			IC50 [12]: 3.1 µM; IC50 [13]: 3.8 µM
CCOc1nc2c(c(=O)n(C)c(=O)n2C)n1CCCC(=O)N/N=C/c1ccc(OC)cc1O	> 200	> 200	
COc1ccc(C2CNC(=O)C2)cc1OC1CCCC1 (stereo not given) [ROLIPRAM]	> 200		
Cn1c(=O)c2c(nc(NCc3ccccc3)n2CCCC(=O)N/N=C/c2ccc(O)c(O)c2O)n(C)c1=O	8.1	1.9	inhibition (Rattus norvegicus [14]): inactive; inhibition in vivo at 50 mg/kg (Rattus norvegicus [5]): 53%; inhibition (Rattus norvegicus [15]): inactive
Cn1c(=O)c2c(nc(NCc3ccccc3)n2CCCC(=O)N/N=C/c2ccccc2O)n(C)c1=O	33.6	> 200	
